US9585880B2, “Cyclic amino compounds for use in the treatment of cardiac disorders” (Universitetet I Oslo, priority 2013, dated 2017)
Where a name gives a salt, the structure may show the parent alone.

molecular target: AKAP18δ-PLB interaction (UniProt P26678+Q6JP77); assay: AlphaScreen binding assay of the GST-AKAP18δ : PLB-biotin interaction; conditions: compound library screen; Table 1 compounds similar to those of formula (I); read-out: EC50
Protocol: Stable and optimal assay conditions were determined by cross-titrating GST-AKAP186 and biotinylated PLB using 10 μg/ml glutathione acceptor beads and 10 μg/ml streptavidin donor beads in an AlphaScreen assay. The excitation wavelength was 680 nm, with the emission wavelength being 520-560 nm. Signal intensity in each well was registered and the optimal concentration to use was chosen to be the concentration prior to the peak of the signal.
Concentrations to give a reliable signal were determined to be between 2 and 16 nM for AKAP18δ-GST and 4 and 20 nM PLB-biotin for relevant preparations of protein, for example 4 nM and 20 nM, respectively.
compound library was screened with the above assay.
The compounds of Examples 2-10 were tested for pharmacological activity using the Binding Assay described above. The compounds of Examples 2-10 were dissolved in DMSO to a concentration of 10 mM, diluted in aqueous solution and tested for their ability to disrupt the AKAP18δ-PLB interaction at different concentrations in the AlphaScreen binding assay as described above.
Signal intensity was recorded at each concentration of compound. Maximal signal representing full interaction between AKAP186 and PLB at 0 μM compound was set to 100% and loss of signal (due to compound disruption of the protein-protein interaction) plotted against log [conc compound] and curves fitted in SigmaPlot (see FIGS. 2a-2i).

Sequence of AKAP18δ-PLB interaction (Q6JP77 whole entry): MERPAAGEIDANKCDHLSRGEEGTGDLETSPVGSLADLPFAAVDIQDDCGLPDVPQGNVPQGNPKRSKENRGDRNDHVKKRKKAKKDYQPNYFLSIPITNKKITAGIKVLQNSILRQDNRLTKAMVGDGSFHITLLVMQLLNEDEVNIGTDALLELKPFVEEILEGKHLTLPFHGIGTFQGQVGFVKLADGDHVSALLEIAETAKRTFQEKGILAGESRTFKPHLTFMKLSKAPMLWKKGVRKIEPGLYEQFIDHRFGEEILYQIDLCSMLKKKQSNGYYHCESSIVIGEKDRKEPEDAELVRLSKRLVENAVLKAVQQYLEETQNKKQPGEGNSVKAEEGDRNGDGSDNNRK
Sequence of AKAP18δ-PLB interaction (P26678 whole entry): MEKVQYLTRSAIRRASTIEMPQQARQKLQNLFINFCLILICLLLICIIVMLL

Q: With COc1ccc(CN(Cc2ccc(F)cc2)Cc2nc(C(=O)O)cs2)cc1 as the compound, how does the EC50 read?
A: 0.0256 mM

Q: For Nc1ccc(CN(Cc2ccccc2)Cc2ccc(N)cc2)cc1, which EC50 is on record?
A: 0.0038 mM

Q: How did the EC50 turn out when O=C(O)c1csc(CN(Cc2ccc(F)cc2)Cc2ccc(Cl)cc2)n1 was run?
A: 0.0943 mM

Q: O=C(O)c1csc(CN(Cc2cccc(C(F)(F)F)c2)Cc2ccccc2F)n1 was tested. Which EC50 did it give?
A: 0.216 mM

Q: Cc1ccc(CN(CCC(c2ccccc2)c2ccccc2)Cc2nc(C(=O)O)cs2)cc1 was tested. Which EC50 did it give?
A: 0.0354 mM

Q: CN(C)c1ccc(CN(Cc2ccccc2)Cc2ccc(N(C)C)cc2)cc1 was tested. Which EC50 did it give?
A: 0.002 mM

Q: With O=C(O)c1ccc(CN(Cc2ccccc2)Cc2ccc(C(=O)O)cc2)cc1 as the compound, how does the EC50 read?
A: 0.0296 mM

Q: Cc1ccc(CN(Cc2cccc(C(F)(F)F)c2)Cc2nc(C(=O)O)cs2)cc1 was tested. Which EC50 did it give?
A: 0.0983 mM

Q: How did the EC50 turn out when O=C(O)c1csc(CN(Cc2ccc(F)cc2)Cc2cccc(Cl)c2)n1 was run?
A: 0.0364 mM

Q: How did the EC50 turn out when O=C(O)c1csc(CN(Cc2ccc(F)cc2)Cc2ccc(OCc3ccccc3)cc2)n1 was run?
A: 0.0395 mM

Q: How did the EC50 turn out when O=C(O)c1csc(CN(CCC(c2ccccc2)c2ccccc2)Cc2ccc(F)cc2)n1 was run?
A: 0.018 mM

Q: With Nc1ccc(CN(Cc2ccc(N)cc2)Cc2ccc(N)cc2)cc1 as the compound, how does the EC50 read?
A: 0.0222 mM

Q: How did the EC50 turn out when CC(C)(C)c1ccc(CN(CCC(c2ccccc2)c2ccccc2)Cc2nc(C(=O)O)cs2)cc1 was run?
A: 0.0211 mM

Q: With O=C(O)c1csc(CN(CCC(c2ccccc2)c2ccccc2)Cc2ccccc2F)n1 as the compound, how does the EC50 read?
A: 0.0106 mM

Q: How did the EC50 turn out when O=C(O)c1csc(CN(Cc2ccc(F)cc2)Cc2cccc(C(F)(F)F)c2)n1 was run?
A: 0.0605 mM

Q: How did the EC50 turn out when O=C(Nc1ccccc1)Nc1ccc(CN(Cc2ccccc2)Cc2ccc(NC(=O)Nc3ccccc3)cc2)cc1 was run?
A: 0.0036 mM

Q: How did the EC50 turn out when CCN(CC)c1ccc(CN(Cc2ccccc2)Cc2ccc(N(CC)CC)cc2)cc1 was run?
A: 0.0029 mM

Q: How did the EC50 turn out when O=C(Nc1ccc(F)cc1)Nc1ccc(CN(Cc2ccccc2)Cc2ccc(NC(=O)Nc3ccc(F)cc3)cc2)cc1 was run?
A: 0.0093 mM

Q: How did the EC50 turn out when Cc1ccc(CN(Cc2ccc(F)cc2)Cc2nc(C(=O)O)cs2)cc1 was run?
A: 0.137 mM

Q: How did the EC50 turn out when Cc1ccc(NC(=O)Nc2ccc(CN(Cc3ccccc3)Cc3ccc(NC(=O)Nc4ccc(C)cc4)cc3)cc2)cc1 was run?
A: 0.0025 mM

Q: With Cc1ccc(NC(=O)Nc2ccc(CN(Cc3ccc(NC(=O)Nc4ccc(C)cc4)cc3)Cc3ccc(NC(=O)Nc4ccc(C)cc4)cc3)cc2)cc1 as the compound, how does the EC50 read?
A: 0.0052 mM

Q: With O=[N+]([O-])c1ccc(CN(Cc2ccccc2)Cc2ccc([N+](=O)[O-])cc2)cc1 as the compound, how does the EC50 read?
A: 0.0075 mM

Q: With CC(C)(C)c1ccc(CN(Cc2ccc(F)cc2)Cc2nc(C(=O)O)cs2)cc1 as the compound, how does the EC50 read?
A: 0.0416 mM

same assay, conditions: half-maximal disruption of AKAP18δ-PLB signal; compounds of Examples 2-10; read-out: EC50

Q: How did the EC50 turn out when O=[N+]([O-])c1ccc(CN2CCc3ccccc3C2)cc1 [Compound 6, N-4-nitro-benzyl-1,2,3,4-tetrahydroisoquinoline] was run?
A: 0.0715 mM

Q: Which EC50 does the source give for CC(C)(C)c1ccc(CN2CCc3ccccc3C2)cc1 [Compound 3, N-4-t-butyl-benzyl-1,2,3,4-tetrahydroisoquinoline hydrochloride salt] here?
A: 0.0553 mM

Q: Which EC50 does the source give for Cc1ccc(CN2CCc3ccccc3C2)cc1 [Compound 2, N-4-methyl-benzyl-1,2,3,4-tetrahydroisoquinoline] here?
A: 0.142 mM

Q: For c1ccc(CN2Cc3ccccc3C2)cc1 [Compound 7, N-benzyl-isoindoline hydrochloride salt], which EC50 is on record?
A: 0.207 mM

Q: For c1ccc2c(c1)CN(Cc1ccncc1)C2 [Compound 8, N-4-methylpyridyl-isoindoline], which EC50 is on record?
A: 0.0718 mM

Q: With Brc1ccc(CN2CCc3ccccc3C2)cc1 [Compound 5, N-4-bromo-benzyl-1,2,3,4-tetrahydroisoquinoline hydrochloride salt] as the compound, how does the EC50 read?
A: 0.0645 mM

same assay, conditions: half-maximal disruption of AKAP18δ-PLB signal; compounds of Examples 2-10; value in mM

Q: Cl.c1ccc(CN2CCc3ccccc3C2)cc1 [Compound 4, N-4-benzyl-1,2,3,4-tetrahydroisoquinoline hydrochloride salt] was tested. Which EC50 did it give?
A: single-digit

same assay, conditions: half-maximal disruption of AKAP18δ-PLB signal; compounds of Examples 2-10; value in mM; read-out: EC50

Q: Cl.c1ccc(CN2CCc3ccccc3C2)cc1 [Compound 4, N-4-benzyl-1,2,3,4-tetrahydroisoquinoline hydrochloride salt] was tested. Which EC50 did it give?
A: 6.5 mM
